Patent US10392630B2, “Plants having increased tolerance to herbicides” (BASF AGRO B.V., priority 2013, dated 2019)
Where “and” joins values, the source holds several entries; their conditions need not be identical. Equal entries are not always repeated.

What was measured:
[1] = tested on: Alopecurus wildtype PPO (ALOMY), PPO herbicide sensitive PPO2, SEQ ID NO 2; test: PPO enzyme assay, dose-response (fluorescence), wildtype Alopecurus PPO2; assay type: biochemical, Alopecurus myosuroides
[2] = molecular target: Amaranthus wildtype PPO (AMARE), PPO herbicide sensitive PPO2 (Amaranthus tuberculatus, UniProt Q0NZW9); test: PPO enzyme assay, dose-response (fluorescence), wildtype Amaranthus PPO2; assay type: biochemical; settings: IC50 (M), Table 3a
Amaranthus wildtype PPO (AMARE), PPO herbicide sensitive PPO2, sequence (Q0NZW9 entry or part of it): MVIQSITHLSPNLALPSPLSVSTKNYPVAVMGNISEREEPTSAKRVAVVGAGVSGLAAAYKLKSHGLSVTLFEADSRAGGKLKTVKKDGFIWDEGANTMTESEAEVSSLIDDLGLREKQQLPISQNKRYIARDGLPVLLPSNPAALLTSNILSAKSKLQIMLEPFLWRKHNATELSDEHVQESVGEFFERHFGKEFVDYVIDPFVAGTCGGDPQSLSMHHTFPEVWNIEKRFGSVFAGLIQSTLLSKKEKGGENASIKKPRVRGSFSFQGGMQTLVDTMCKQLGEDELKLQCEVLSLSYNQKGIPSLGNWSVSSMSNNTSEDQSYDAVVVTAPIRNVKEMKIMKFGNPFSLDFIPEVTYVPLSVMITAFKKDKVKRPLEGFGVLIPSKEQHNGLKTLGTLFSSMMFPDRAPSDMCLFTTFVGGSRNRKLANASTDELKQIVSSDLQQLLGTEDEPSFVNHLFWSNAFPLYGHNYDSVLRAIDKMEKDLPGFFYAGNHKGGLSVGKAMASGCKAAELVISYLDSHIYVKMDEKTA

[3] = tested on: transgenic Arabidopsis thaliana plants; test: Growth inhibition of transgenic Arabidopsis in 48-well plates, tolerance factor (Table 5, FIG. 2); assay type: in vivo; settings: growth inhibition seven to ten days after seeding
[4] = tested on: transgenic T0 corn events; test: Herbicide injury of transgenic T0 corn events, greenhouse spray (Table 6a); assay type: in vivo, Zea mays; settings: 7 days after treatment
[5] = tested on: transgenic soybean cv Jake cuttings; test: Herbicide injury of transgenic soybean cuttings from T0 plants (Table 7, FIG. 4); assay type: in vivo, Glyceine max; settings: V2 spray, 1 week after treatment

C#CCN1C(=O)C(F)(F)Oc2cc(F)c(-n3c(=O)n(C)c(=S)n(C)c3=O)cc21 [BAS 850H]
IC50 ([1]; Table 3a, PPO herbicide sensitive PPO2, SEQ ID NO 2, ALOMY): 0.0364 nM | IC50 ([1]; Table 3b, SEQ ID NO 2, WT): 0.0364 nM | IC50 ([2]; PPO herbicide sensitive PPO2 AC): 5.96e-11 M | IC50 ([2]; PPO herbicide sensitive PPO2 WC): 5.17e-10 M | TF (Tolerance Factor), relative tolerance rate (non-transgenic = 1.0) ([3]; transgenic Arabidopsis Am_PPO2_F438I): >50 | TF (Tolerance Factor), relative tolerance rate (non-transgenic = 1.0) ([3]; transgenic Arabidopsis Am_PPO2_R137A): >50 | TF (Tolerance Factor), relative tolerance rate (non-transgenic = 1.0) ([3]; transgenic Arabidopsis Am_PPO2_R137A_F438I): >50 | TF (Tolerance Factor), relative tolerance rate (non-transgenic = 1.0) ([3]; transgenic Arabidopsis Am_PPO2_R137A_F438L): >50 | TF (Tolerance Factor), relative tolerance rate (non-transgenic = 1.0) ([3]; transgenic Arabidopsis Am_PPO2_R137A_F438M): >50 | TF (Tolerance Factor), relative tolerance rate (non-transgenic = 1.0) ([3]; transgenic Arabidopsis Am_PPO2_R137A_F438V): >50 | TF (Tolerance Factor), relative tolerance rate (non-transgenic = 1.0) ([3]; transgenic Arabidopsis Am_PPO2_R137I): >50 | TF (Tolerance Factor), relative tolerance rate (non-transgenic = 1.0) ([3]; transgenic Arabidopsis Am_PPO2_R137L_F438I): >50 | TF (Tolerance Factor), relative tolerance rate (non-transgenic = 1.0) ([3]; transgenic Arabidopsis Am_PPO2_R137L_F438L): >50 | TF (Tolerance Factor), relative tolerance rate (non-transgenic = 1.0) ([3]; transgenic Arabidopsis Am_PPO2_R137L_F438M): >50 | TF (Tolerance Factor), relative tolerance rate (non-transgenic = 1.0) ([3]; transgenic Arabidopsis Am_PPO2_R137M_F438I): >50 | TF (Tolerance Factor), relative tolerance rate (non-transgenic = 1.0) ([3]; transgenic Arabidopsis Am_PPO2_R137M_F438L): >50 | TF (Tolerance Factor), relative tolerance rate (non-transgenic = 1.0) ([3]; transgenic Arabidopsis Am_PPO2_R137M_F438M): >50 | TF (Tolerance Factor), relative tolerance rate (non-transgenic = 1.0) ([3]; transgenic Arabidopsis Am_PPO2_R137M_F438V): >50 | Herbicide injury, 0 to 9 rating scale ([4]; T0 corn events AlomyPPO1_R138A, 50 g ai/ha + 1% (v/v) MSO at V2 stage): 6 | Herbicide injury, 0 to 9 rating scale ([4]; T0 corn events AlomyPPO1_R138A_Y420M, 50 g ai/ha + 1% (v/v) MSO at V2 stage): 5 and 6 | Herbicide injury, 0 to 9 rating scale ([4]; T0 corn events AlomyPPO1_R138A_Y420V, 50 g ai/ha + 1% (v/v) MSO at V2 stage): 6 and 5 | Herbicide injury, 0 to 9 rating scale ([4]; T0 corn events AlomyPPO1_R138A_Y420V, 100 g ai/ha + 1% (v/v) MSO at V2 stage): 5 | Herbicide injury, 0 to 9 rating scale ([4]; T0 corn events AlomyPPO1_Y420M, 50 g ai/ha + 1% (v/v) MSO at V2 stage): 5 and 6 | Herbicide injury, 0 to 9 rating scale ([4]; T0 corn events AlomyPPO1_Y420M, 100 g ai/ha + 1% (v/v) MSO at V2 stage): 6 | Herbicide injury, 0 to 9 rating scale ([4]; T0 corn events AlomyPPO1_Y420V, 50 g ai/ha + 1% (v/v) MSO at V2 stage): 5 and 4 and 6 | Herbicide injury, 0 to 9 rating scale ([4]; T0 corn events AlomyPPO1_Y420V, 100 g ai/ha + 1% (v/v) MSO at V2 stage): 6 | Herbicide injury, 0 to 9 rating scale ([4]; T0 corn events AlomyPPO2, 50 g ai/ha + 1% (v/v) MSO at V2 stage): 6 | Herbicide injury, 0 to 9 rating scale ([4]; T0 corn events AlomyPPO2, 75 g ai/ha + 1% (v/v) MSO at V2 stage): 6 | Herbicide injury, 0 to 9 rating scale ([4]; T0 corn events AlomyPPO2_R137A, 50 g ai/ha + 1% (v/v) MSO at V2 stage): 5 and 4 and 6 | Herbicide injury, 0 to 9 rating scale ([4]; T0 corn events AlomyPPO2_R137A, 75 g ai/ha + 1% (v/v) MSO at V2 stage): 5 | Herbicide injury, 0 to 9 rating scale ([4]; T0 corn events AlomyPPO2_R137A_F438I, 50 g ai/ha + 1% (v/v) MSO at V2 stage): 4 | Herbicide injury, 0 to 9 rating scale ([4]; T0 corn events AlomyPPO2_R137A_F438I, 100 g ai/ha + 1% (v/v) MSO at V2 stage): 4 and 5 | Herbicide injury, 0 to 9 rating scale ([4]; T0 corn events AlomyPPO2_R137A_F438M, 100 g ai/ha + 1% (v/v) MSO at V2 stage): 5 | Herbicide injury, 0 to 9 rating scale ([4]; T0 corn events AlomyPPO2_R137A_F438V, 100 g ai/ha + 1% (v/v) MSO at V2 stage): 6 | Herbicide injury, 0 to 9 rating scale ([4]; T0 corn events AlomyPPO2_R137I, 100 g ai/ha + 1% (v/v) MSO at V2 stage): 4 | Herbicide injury, 0 to 9 rating scale ([4]; T0 corn events AlomyPPO2_R137M_F438I, 75 g ai/ha + 1% (v/v) MSO at V2 stage): 3 and 4 | Herbicide injury, 0 to 9 rating scale ([4]; T0 corn events tp-SorbiPPO2::AlomyPPO2, 50 g ai/ha + 1% (v/v) MSO at V2 stage): 5 and 6 | Herbicide injury, 0 to 9 rating scale ([4]; T0 corn events tp-SorbiPPO2::AlomyPPO2, 100 g ai/ha + 1% (v/v) MSO at V2 stage): 5 | Herbicide injury, 0 to 9 rating scale ([4]; T0 corn events tp-SorbiPPO2::AlomyPPO2_F431V, 50 g ai/ha + 1% (v/v) MSO at V2 stage): 4 and 5 | Herbicide injury, 0 to 9 rating scale ([4]; T0 corn events tp-SorbiPPO2::AlomyPPO2_F431V, 100 g ai/ha + 1% (v/v) MSO at V2 stage): 5 and 6 | Herbicide injury, 0 to 9 rating scale ([4]; T0 corn events tp-SorbiPPO2::AlomyPPO2_R130A, 50 g ai/ha + 1% (v/v) MSO at V2 stage): 4 and 5 | Herbicide injury, 0 to 9 rating scale ([4]; T0 corn events tp-SorbiPPO2::AlomyPPO2_R130A_F431V, 100 g ai/ha + 1% (v/v) MSO at V2 stage): 7 and 6 | Herbicide injury, 0 to 9 rating scale ([4]; T0 corn events tp-SorbiPPO2::c-AlomyPPO2_R130A_F431M, 50 g ai/ha + 1% (v/v) MSO at V2 stage): 4 and 5 | Herbicide injury, 0 to 9 rating scale ([4]; T0 corn events tp-SorbiPPO2::c-AlomyPPO2_R130L_F431V, 50 g ai/ha + 1% (v/v) MSO at V2 stage): 4 and 3 and 5 | Herbicide injury, 0 to 9 rating scale ([4]; T0 corn events tp-ZeamaPPO2::AlomyPPO2, 50 g ai/ha + 1% (v/v) MSO at V2 stage): 5 and 6 | Herbicide injury, 0 to 9 rating scale ([4]; T0 corn events tp-ZeamaPPO2::AlomyPPO2_F431V, 50 g ai/ha + 1% (v/v) MSO at V2 stage): 3 and 4 and 5 | Herbicide injury, 0 to 9 rating scale ([4]; T0 corn events tp-ZeamaPPO2::AlomyPPO2_F431V, 100 g ai/ha + 1% (v/v) MSO at V2 stage): 4 | Herbicide injury, 0 to 9 rating scale ([4]; T0 corn events tp-ZeamaPPO2::AlomyPPO2_R130A, 50 g ai/ha + 1% (v/v) MSO at V2 stage): 7 and 4 and 5 and 6 | Herbicide injury, 0 to 9 rating scale ([4]; T0 corn events tp-ZeamaPPO2::AlomyPPO2_R130A, 100 g ai/ha + 1% (v/v) MSO at V2 stage): 5 | Herbicide injury, 0 to 9 rating scale ([4]; T0 corn events tp-ZeamaPPO2::AlomyPPO2_R130A_F431V, 50 g ai/ha + 1% (v/v) MSO at V2 stage): 4 and 5 | Herbicide injury, 0 to 9 rating scale ([4]; T0 corn events tp-ZeamaPPO2::c-AlomyPPO2_R130L_F431V, 50 g ai/ha + 1% (v/v) MSO at V2 stage): 3 and 4 and 5 and 6 | Herbicide injury, 0 to 9 rating scale ([4]; T0 corn events tp-ZeamaPPO2::c-AlomyPPO2_R130M_F431V, 50 g ai/ha + 1% (v/v) MSO at V2 stage): 3 and 4 and 2 | Herbicide injury, 0 to 9 rating scale ([4]; untransformed wild type corn, 50 g ai/ha + 1% (v/v) MSO at V2 stage): 6 | Herbicide injury, 0 to 9 rating scale ([4]; untransformed wild type corn, 75 g ai/ha + 1% (v/v) MSO at V2 stage): 6 | Herbicide injury, 0 to 9 rating scale ([4]; untransformed wild type corn, 100 g ai/ha + 1% (v/v) MSO at V2 stage): 6 | Herbicide injury ([5]; AlomyPPO1_R138A T0 cuttings, BAS 850H 25 g ai/ha): 5 and 9 | Herbicide injury ([5]; AlomyPPO1_R138A T0 cuttings, BAS 850H 50 g ai/ha): 8 and 9 | Herbicide injury ([5]; AlomyPPO1_R138A_Y420M T0 cuttings, BAS 850H 25 g ai/ha): 7 | Herbicide injury ([5]; AlomyPPO1_R138A_Y420M T0 cuttings, BAS 850H 50 g ai/ha): 9 | Herbicide injury ([5]; AlomyPPO1_R138L T0 cuttings, BAS 850H 25 g ai/ha): 8 and 9 and 6 | Herbicide injury ([5]; AlomyPPO1_R138L T0 cuttings, BAS 850H 50 g ai/ha): 8 and 7 and 9 | Herbicide injury ([5]; AlomyPPO1_Y420M T0 cuttings, BAS 850H 25 g ai/ha): 6 and 5 and 9 | Herbicide injury ([5]; AlomyPPO1_Y420M T0 cuttings, BAS 850H 50 g ai/ha): 8 and 6 and 9 | Herbicide injury ([5]; AlomyPPO1_Y420V T0 cuttings, BAS 850H 50 g ai/ha): 9 and 7 and 8 and 5 | Herbicide injury ([5]; AlomyPPO2 T0 cuttings, BAS 850H 25 g ai/ha): 7 and 8 and 9 | Herbicide injury ([5]; AlomyPPO2 T0 cuttings, BAS 850H 50 g ai/ha): 9 and 8 and 7 | Herbicide injury ([5]; AlomyPPO2_R137A T0 cuttings, BAS 850H 25 g ai/ha): 7 | Herbicide injury ([5]; AlomyPPO2_R137A T0 cuttings, BAS 850H 50 g ai/ha): 7 | Herbicide injury ([5]; AlomyPPO2_R137A_F438I T0 cuttings, BAS 850H 25 g ai/ha): 4 and 5 and 7 and 8 and 6 | Herbicide injury ([5]; AlomyPPO2_R137A_F438I T0 cuttings, BAS 850H 50 g ai/ha): 5 and 6 and 7 and 8 | Herbicide injury ([5]; AlomyPPO2_R137A_F438I T0 cuttings, BAS 850H 75 g ai/ha): 5 and 8 and 7 and 9 and 6 | Herbicide injury ([5]; AlomyPPO2_R137A_F438L T0 cuttings, BAS 850H 25 g ai/ha): 6 and 9 and 8 | Herbicide injury ([5]; AlomyPPO2_R137A_F438L T0 cuttings, BAS 850H 50 g ai/ha): 7 and 9 and 5 | Herbicide injury ([5]; AlomyPPO2_R137A_F438L T0 cuttings, BAS 850H 75 g ai/ha): 7 and 9 and 5 | Herbicide injury ([5]; AlomyPPO2_R137A_F438V T0 cuttings, BAS 850H 50 g ai/ha): 4 and 5 and 6 | Herbicide injury ([5]; AlomyPPO2_R137A_F438V T0 cuttings, BAS 850H 75 g ai/ha): 5 and 7 and 6 | Herbicide injury ([5]; AlomyPPO2_R137I T0 cuttings, BAS 850H 50 g ai/ha): 6 and 5 and 7 and 9 | Herbicide injury ([5]; AlomyPPO2_R137L_F438I T0 cuttings, BAS 850H 25 g ai/ha): 8 and 9 | Herbicide injury ([5]; AlomyPPO2_R137L_F438I T0 cuttings, BAS 850H 50 g ai/ha): 9 and 8 | Herbicide injury ([5]; AlomyPPO2_R137L_F438I T0 cuttings, BAS 850H 75 g ai/ha): 9 and 8 | Herbicide injury ([5]; AlomyPPO2_R137M_F438L T0 cuttings, BAS 850H 50 g ai/ha): 7 and 4 and 5 | Herbicide injury ([5]; AlomyPPO2_R137M_F438L T0 cuttings, BAS 850H 75 g ai/ha): 7 and 6 and 5 | Herbicide injury ([5]; Wild type cuttings, BAS 850H 25 g ai/ha): 8 | Herbicide injury ([5]; Wild type cuttings, BAS 850H 50 g ai/ha): 9 | Herbicide injury ([5]; Wild type cuttings, BAS 850H 75 g ai/ha): 9
